From PubChem BioAssay AID1195 (EPA DSSTox, 2008)

System: human maximum recommended daily dose, FDA database
Assay: DSSTox (FDAMDD) FDA Maximum (Recommended) Daily Dose Database
Details: hits give low values
In short: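 MRDD values come from clinical trials with daily oral dosing, usually for 3–12 months, for the average adult, in mg/day converted to mg/kg-bw/day assuming 60 kg. Antineoplastic mg/m2 doses are divided by 37. Activity score maps log10(1/MRDD mmol) onto 1–100.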

[1] = TherapeuticCategory: antibacterial
[2] = TherapeuticCategory: vasodilator
[3] = TherapeuticCategory: antidepressant
[4] = TherapeuticCategory: antihypertensive

C[C@H]1C[C@@H]2[C@H]([C@@H](O)C[C@@]3(C)[C@H]2CC[C@]3(O)C(=O)CO)[C@@]2(C)C=CC(=O)C=C12
maximum recommended daily dose (mmol/kg-bw/day) (TherapeuticCategory: glucocorticoid): 0.0111

CCC(c1ccccc1)c1c(O)c2ccccc2oc1=O (stereo unspecified)
maximum recommended daily dose (mmol/kg-bw/day) (TherapeuticCategory: anticoagulant): 0.00143

CO[C@H]1C[C@H](O[C@H]2[C@H](C)[C@@H](O[C@@H]3O[C@H](C)C[C@H](N(C)C)[C@H]3OC(C)=O)[C@@H](C)C[C@]3(CO3)C(=O)[C@H](C)[C@@H](OC(C)=O)[C@@H](C)[C@@H](C)OC(=O)[C@@H]2C)O[C@@H](C)[C@@H]1OC(C)=O
maximum recommended daily dose (mmol/kg-bw/day) [1]: 0.0409

O=C(OC1C(OC(=O)c2cccnc2)C(OC(=O)c2cccnc2)C(OC(=O)c2cccnc2)C(OC(=O)c2cccnc2)C1OC(=O)c1cccnc1)c1cccnc1 (stereo unspecified)
maximum recommended daily dose (mmol/kg-bw/day) [2]: 0.0823

O=C(CCNNC(=O)c1ccncc1)NCc1ccccc1
maximum recommended daily dose (mmol/kg-bw/day) [3]: 0.0112

Cc1ncc([N+](=O)[O-])n1CCO
maximum recommended daily dose (mmol/kg-bw/day) (TherapeuticCategory: antiprotozoal): 0.195

NC(CSCC(=O)O)C(=O)O (stereo unspecified)
maximum recommended daily dose (mmol/kg-bw/day) (TherapeuticCategory: mucolytic, expectorant): 0.209

COc1cc2nc(N3CCN(C(=O)C4COc5ccccc5O4)CC3)nc(N)c2cc1OC (stereo unspecified)
maximum recommended daily dose (mmol/kg-bw/day) [4]: 0.000591

Cc1cn([C@H]2C[C@H](N=[N+]=[N-])[C@@H](CO)O2)c(=O)[nH]c1=O
maximum recommended daily dose (mmol/kg-bw/day) (TherapeuticCategory: antiviral): 0.0374

CCC(C)(C)N=C(N)NC#N
maximum recommended daily dose (mmol/kg-bw/day) [4]: 0.0674

COc1cc2c3cc1Oc1cc(ccc1O)C[C@@H]1c4c(cc(OC)c(O)c4Oc4ccc(cc4)C[C@@H]3N(C)CC2)CC[N+]1(C)C
maximum recommended daily dose (mmol/kg-bw/day) (TherapeuticCategory: skeletal muscle relaxant, diagnostic aid): 0.000979

O=c1[nH]c(=O)n([C@H]2C[C@H](O)[C@@H](CO)O2)cc1F
maximum recommended daily dose (mmol/kg-bw/day) (TherapeuticCategory: antiviral, antineoplastic): 0.00244

CNS(=O)(=O)Cc1ccc2[nH]cc(CCN(C)C)c2c1
maximum recommended daily dose (mmol/kg-bw/day) (TherapeuticCategory: antimigraine): 0.000677

C[C@@](Cc1ccc(O)c(O)c1)(NN)C(=O)O
maximum recommended daily dose (mmol/kg-bw/day) (TherapeuticCategory: antiparkinsonian): 0.00368

Cc1cc(C)nc(NS(=O)(=O)c2ccc(N)cc2)n1
maximum recommended daily dose (mmol/kg-bw/day) [1]: 0.18

CS(=O)(=O)c1ccc([C@@H](O)[C@@H](CO)NC(=O)C(Cl)Cl)cc1
maximum recommended daily dose (mmol/kg-bw/day) [1]: 0.14

CCN(CC)CCC1(c2ccccc2)CCC(=O)NC1=O (stereo unspecified)
maximum recommended daily dose (mmol/kg-bw/day) (TherapeuticCategory: anticholinergic, antiparkinsonian): 0.00289

CC(C(=O)O)c1ccc2c(c1)Cc1cccnc1O2 (stereo unspecified)
maximum recommended daily dose (mmol/kg-bw/day) (TherapeuticCategory: anti inflammatory): 0.0147

CC(=O)CCCCn1c(=O)c2c(ncn2C)n(C)c1=O
maximum recommended daily dose (mmol/kg-bw/day) [2]: 0.0719

CN1CCC(CN2c3ccccc3Sc3ccccc32)C1 (stereo unspecified)
maximum recommended daily dose (mmol/kg-bw/day) (TherapeuticCategory: antipruritic): 0.00169

C[N+]1(C)CCC(OC(=O)CC(O)(c2ccccc2)C2CCCC2)C1 (stereo unspecified)
maximum recommended daily dose (mmol/kg-bw/day) (TherapeuticCategory: anticholinergic): 0.000162

Cn1c(=O)c2c(ncn2CCOC(=O)C(C)(C)Oc2ccc(Cl)cc2)n(C)c1=O
maximum recommended daily dose (mmol/kg-bw/day) (TherapeuticCategory: bronchodilator): 0.0297

O=C(O)c1cc(=O)c2c(OCC(O)COc3cccc4oc(C(=O)O)cc(=O)c34)cccc2o1
maximum recommended daily dose (mmol/kg-bw/day) (TherapeuticCategory: prophylactic antiasthmatic, antiallergic): 0.0284

Nc1c(Br)cc(Br)cc1CNC1CCC(O)CC1 (stereo unspecified)
maximum recommended daily dose (mmol/kg-bw/day) (TherapeuticCategory: expectorant): 0.00529

CCOC(=O)c1ncn2c1CN(C)C(=O)c1cc(F)ccc1-2
maximum recommended daily dose (mmol/kg-bw/day) (TherapeuticCategory: benzodiazepine antagonist): 0.000165

Nc1ccn([C@@H]2O[C@H](CO)[C@@H](O)C2O)c(=O)n1 (stereo partly specified)
maximum recommended daily dose (mmol/kg-bw/day) (TherapeuticCategory: antineoplastic, antiviral): 0.0111

CC(NC(C)(C)C)C(=O)c1cccc(Cl)c1 (stereo unspecified)
maximum recommended daily dose (mmol/kg-bw/day) [3]: 0.0313

CC(C)(CO)[C@@H](O)C(=O)NCCC(=O)O
maximum recommended daily dose (mmol/kg-bw/day) (TherapeuticCategory: vitamin): 0.000534

COc1ccc(C(CN(C)C)C2(O)CCCCC2)cc1 (stereo unspecified)
maximum recommended daily dose (mmol/kg-bw/day) [3]: 0.0225

C[C@H](CSC(=O)[C@@H](C)NC(=O)C1CCCCC1)C(=O)N1CCC[C@H]1C(=O)O
maximum recommended daily dose (mmol/kg-bw/day) [4]: 0.00251

CO[C@H]1[C@@H](O)C[C@H](O[C@H]2[C@@H](O)C[C@H](O[C@H]3[C@@H](O)C[C@H](O[C@H]4CC[C@@]5(C)[C@H](CC[C@@H]6[C@@H]5C[C@@H](O)[C@]5(C)[C@@H](C7=CC(=O)OC7)CC[C@]65O)C4)O[C@@H]3C)O[C@@H]2C)O[C@@H]1C
maximum recommended daily dose (mmol/kg-bw/day) (TherapeuticCategory: cardiotonic): 8.39e-06

COc1cc(C(=O)NS(=O)(=O)c2ccccc2C)ccc1Cc1cn(C)c2ccc(NC(=O)OC3CCCC3)cc12
maximum recommended daily dose (mmol/kg-bw/day) (TherapeuticCategory: antiasthmatic): 0.00116

COC(=O)C1=C(C)NC(C)=C(C(=O)O[C@@H]2CCCN(Cc3ccccc3)C2)[C@@H]1c1cccc([N+](=O)[O-])c1
maximum recommended daily dose (mmol/kg-bw/day) (TherapeuticCategory: antihypertensive, Ca channel blocker): 0.000263

NS(=O)(=O)c1cc2c(cc1Cl)NCNS2(=O)=O
maximum recommended daily dose (mmol/kg-bw/day) (TherapeuticCategory: diuretic): 0.0112

OCCN1CCN(CCCN2c3ccccc3C=Cc3ccccc32)CC1
maximum recommended daily dose (mmol/kg-bw/day) (TherapeuticCategory: antidepressant, antipsychotic): 0.0138

CCc1cc2c(s1)N(C)C(=O)CN=C2c1ccccc1Cl
maximum recommended daily dose (mmol/kg-bw/day) (TherapeuticCategory: anxiolytic): 0.00314
